Test results from paper PMC1950744, “Transcription Termination Defective Mutants of Rho: Role of Different Functions of Rho in Releasing RNA from the Elongation Complex” (Journal of Molecular Biology, 2007).

Experiments:
[1] = target: T1, Rho (Escherichia coli, UniProt P0AG30, G324D); experiment: UV cross-linking of [γ-32P]ATP, SDS-PAGE, hyperbolic fit; type: binding; details: read-out: Kd, app
T1 construct: full-length WT rho in pET21b (pRS96; NdeI/XhoI), C-terminal His-tag kept, expressed in E. coli BL21(DE3) (I382N in BL21SI), Ni-NTA and heparin-Sepharose; homo-hexamer; 419 residues natural length
Excerpt: (§1) UV cross-linking of [γ-32P]ATP, SDS-PAGE, hyperbolic fit on Rho

[2] = target: T2, Rho (Escherichia coli, UniProt P0AG30, G51V); experiment: as above; type: binding; details: read-out: Kd, app
T2 construct: full-length WT rho in pET21b (pRS96; NdeI/XhoI), C-terminal His-tag kept, expressed in E. coli BL21(DE3) (I382N in BL21SI), Ni-NTA and heparin-Sepharose; homo-hexamer; 419 residues natural length
Excerpt: as §1

[3] = target: T3, Rho (Escherichia coli, UniProt P0AG30, I382N); experiment: as above; type: binding; details: read-out: Kd, app
T3 construct: full-length WT rho in pET21b (pRS96; NdeI/XhoI), C-terminal His-tag kept, expressed in E. coli BL21(DE3) (I382N in BL21SI), Ni-NTA and heparin-Sepharose; homo-hexamer; 419 residues natural length
Excerpt: as §1

[4] = target: T4, Rho (Escherichia coli, UniProt P0AG30, N340S); experiment: as above; type: binding; details: read-out: Kd, app
T4 construct: full-length WT rho in pET21b (pRS96; NdeI/XhoI), C-terminal His-tag kept, expressed in E. coli BL21(DE3) (I382N in BL21SI), Ni-NTA and heparin-Sepharose; homo-hexamer; 419 residues natural length
Excerpt: as §1

[5] = target: T5, Rho (Escherichia coli, UniProt P0AG30, P279S); experiment: as above; type: binding; details: read-out: Kd, app
T5 construct: full-length WT rho in pET21b (pRS96; NdeI/XhoI), C-terminal His-tag kept, expressed in E. coli BL21(DE3) (I382N in BL21SI), Ni-NTA and heparin-Sepharose; homo-hexamer; 419 residues natural length
Excerpt: as §1

[6] = target: T6, Rho (Escherichia coli, UniProt P0AG30, Y274D); experiment: as above; type: binding; details: read-out: Kd, app
T6 construct: full-length WT rho in pET21b (pRS96; NdeI/XhoI), C-terminal His-tag kept, expressed in E. coli BL21(DE3) (I382N in BL21SI), Ni-NTA and heparin-Sepharose; homo-hexamer; 419 residues natural length
Excerpt: as §1

[7] = test system: T7, Nc1ncnc2c1ncn2[C@@H]1O[C@H](COP(=O)(O)OP(=O)(O)OP(=O)(O)O)[C@@H](O)[C@H]1O; experiment: ATPase assay, Pi release by TLC, Lineweaver-Burk; type: biochemical, Escherichia coli; details: poly(C) 10 μM as cofactor, 5 nM Rho, 25 mM Tris-HCl pH 8.0, 50 mM KCl, 5 mM MgCl2, 1 mM DTT, 0.1 mg/ml BSA, 30 °C
T7 construct: full-length WT rho in pET21b (pRS96; NdeI/XhoI), C-terminal His-tag kept, expressed in E. coli BL21(DE3) (I382N in BL21SI), Ni-NTA and heparin-Sepharose; homo-hexamer; 419 residues natural length
Excerpt: ATPase assay, Pi release by TLC, Lineweaver-Burk on Rho

T3 sequence (P0AG30 whole entry I382N): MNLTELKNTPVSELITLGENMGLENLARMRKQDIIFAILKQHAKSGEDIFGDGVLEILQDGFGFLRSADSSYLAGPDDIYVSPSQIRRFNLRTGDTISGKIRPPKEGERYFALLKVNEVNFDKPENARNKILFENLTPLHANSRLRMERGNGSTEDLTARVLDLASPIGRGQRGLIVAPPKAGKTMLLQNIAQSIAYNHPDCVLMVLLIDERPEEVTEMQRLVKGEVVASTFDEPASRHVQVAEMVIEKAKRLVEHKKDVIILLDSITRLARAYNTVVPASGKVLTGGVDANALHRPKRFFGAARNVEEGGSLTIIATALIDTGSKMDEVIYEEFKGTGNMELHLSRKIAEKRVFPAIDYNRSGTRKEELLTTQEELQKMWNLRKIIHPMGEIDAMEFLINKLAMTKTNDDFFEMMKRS
T2 sequence (P0AG30 whole entry G51V): as the sequence (P0AG30 whole entry I382N) above, with G51V, N382I counted along it
T1 sequence (P0AG30 whole entry G324D): as the sequence (P0AG30 whole entry I382N) above, with G324D, N382I counted along it
T5 sequence (P0AG30 whole entry P279S): as the sequence (P0AG30 whole entry I382N) above, with P279S, N382I counted along it
T4 sequence (P0AG30 whole entry N340S): as the sequence (P0AG30 whole entry I382N) above, with N340S, N382I counted along it
T6 sequence (P0AG30 whole entry Y274D): as the sequence (P0AG30 whole entry I382N) above, with Y274D, N382I counted along it

Compound | Kd [1] | Kd [2] | Kd [3] | Kd [4] | Kd [5] | Kd [6] | Km [7]
Nc1ncnc2c1ncn2[C@@H]1O[C@H](COP(=O)(O)OP(=O)(O)OP(=O)(O)O)[C@@H](O)[C@H]1O [ATP] | 2450 ± 150 nM | 1350 ± 260 nM | 600 ± 100 nM | 1090 ± 120 nM | 4.28 ± 0.54 µM | 3.15 ± 0.26 µM | 
Rho (Escherichia coli K-12; Y80C) |  |  |  |  |  |  | 43.2 ± 0.8 µM
